Measurements taken from US8440460B2, “Methods for transdifferentiating cells” (The Board of Regents of the University of Texas System, priority 2005, dated 2013).
Values joined by “and” are separate entries in the source; they are usually repeats but may differ in a detail not shown here. Equal entries are not always repeated.

Columns and labels:
HS-5 cells [1] = test: CFU-GM colony culture assay in methylcellulose; type: cell-based, human; conditions: 14 days
Protocol: FIG. 5: HS-5 cells transdifferentiate into hematopoietic colony-forming cells. Converted (see FIG. 1) and untreated HS-5 cells were harvested from the tissue culture flasks and culture in methylcellulose in a cl0nigtenic assay in the presence of 50 ng/mL GM-CSF, 50 ng/mL SCF and erythropoietin as described above. After 14 days the cultures were examined using an inverted microscope.
Colony-forming unit granulocyte-macrophage (CFU-GM) colony culture assay. The colony-forming unit-granulocyte-macrophage (CFU-GM) clonogenic assay was performed as previously described (49). Briefly, 2×10^5 treated and untreated cells were cultured in 0.8% methylcellulose in IMDM (GIBCO) supplemented with 10% FCS, and 50 ng/ml recombinant human granulocyte-macrophage colony-stimulating factor. […] All cultures were evaluated after 14 days for the number of CFU-GM colonies, defined as a cluster of more than 50 cells containing granulocytes, monocytes and macrophages. To identify the cells comprising the CFU-GM colonies, single colonies were microaspirated at random, transferred to glass slides, dried and stained with Write's stain and microscopically analyzed.
Converted (see FIG. 1) and untreated HS-5 cells were harvested from the tissue culture flasks and culture in methylcellulose in a cl0nigtenic assay in the presence of 50 ng/mL GM-CSF, 50 ng/mL SCF and erythropoietin as described above. […]

[2] = system: normal human foreskin fibroblasts; conditions: FIG. 2 schedule, FACS day 6
[3] = system: normal bone marrow-derived CD45-negative MSCs; test: FACS analysis of endothelial markers CD133 and VEGFR-2 in treated bone marrow-derived CD45-negative MSCs; type: cell-based, human; conditions: five ng/mL 5-azacytidine days 1 and 4, 100 ng/mL EGF days 7 and 10; FACS day 13
Protocol: FIG. 9: Conversion of normal human bone marrow stroma to endothelial progenitor cells by 5-azacytidine and endothelial growth factor (EGF). Normal bone marrow-derived CD45-negative MSCs were used in this experiment and Five ng/mL of 5-azacytidine was added to culture on days 1 and 4, and 100 ng/mL EGF were added on days 7 and 10. The cultures were analyzed on day 13. The cells were stained with anti-CD133 APC and anti-VEGFR-2 PE antibodies and analyzed by FACS as described above. […] Note that the when treated with AZA+EGF 7.34% of MSC become CD133^+VEGFR-2^+.
In the next set of experiments the inventors determined whether fibroblasts could be reprogrammed to generate endothelial cells. […] Then, the cells were analyzed for the expression of two endothelial cell markers; the endothelial progenitor marker CD-133, as well as the expression of vascular endothelial growth factor-2 receptor (VEGFR-2).
In particular, normal bone marrow-derived CD45-negative mesenchymal cells (ie., bone marrow-derived fibroblastic cells) were used in this experiment and five ng/mL of 5-azacytidine was added to culture on days 1 and 4, and 100 ng/ml EGF were added on days 7 and 10. The cultures were analyzed on day 13. The cells were stained with anti-CD133 APC and anti-VEGFR-2 PE antibodies and analyzed by FACS as described above. […]

HS-5 cells [4] = test: Flow cytometry of 5-methylcytidine as a marker of global DNA methylation in HS-5 cells; type: cell-based, human; conditions: 5-azacytidine 2.5 uM overnight
Protocol: FIG. 3: Azacytidine hypomethylates HS-5 cells. […] HS-5 cells were treated w/ and w/o 5-azacytidine 2.5 uM overnight. After incubation the cells were harvested and washed in PBS. The cells were then fixed and permeabilized using the BD Cytofix/Cytoperm kit (BD Biosciences, San Diego Calif.) as per the kit instructions. After fixation and permeabilization the cells were stained using mouse anti 5-methylcytadine (Serotec Inc., Raleigh N.C.) for 30 minutes. After washing the cells 3 times in the Permwash buffer provided with the BD kit, the mouse antibody was then detected using an RPE labeled rabbit anti mouse IgG (Serotec) for 30 minutes. After 3 additional wash steps, the cells were resuspended in staining buffer (as per the BD kit) and analyzed on a FACSCaliber flow cytometer (BD Immunnocytometry Systems, La Jolla Calif.) for any decrease in 5-methylcytidine. […]
HS-5 cells were treated w/ and w/o 5-azacytidine 2.5 uM overnight. […] After washing the cells 3 times in the Permwash buffer provided with the BD kit, the mouse antibody was then detected using an RPE labeled rabbit anti mouse IgG (Serotec) for 30 minutes. After 3 additional wash steps, the cells were resuspended in staining buffer (as per the BD kit) and analyzed on a FACSCaliber flow cytometer (BD Immunnocytometry Systems, La Jolla Calif.) for any decrease in 5-methylcytidine. […]

[5] = system: normal bone marrow stroma (MSC) CD45-negative cells; test: FACS analysis of CD45 in treated CD45-negative normal bone marrow stroma cells (MSC); type: cell-based, human; conditions: FIG. 1 schedule
Protocol: Human bone marrow stroma cells were grown from the bone marrow of healthy individuals as described above. When the cultures matured and formed homogenous layers of fibroblast-looking cells (termed mesenchymal stem cells; MSC), the cells were trypsinized and analyzed by fluorescence activated cell scanner/sorter (FACS; above) for the presence of the cell surface marker CD45. When the adherent fibroblast-like MSC became CD45-negative, the cells were harvested and transferred to another tissue flask (day 1 of culture).
Generation of Bone Marrow Stroma Cell Cultures. […] The culture medium and floating cells were completely aspirated and replaced with fresh tissue culture medium. Upon confluence, cells were exposed to 0.05% trypsin and 0.53 mM EDTA (GIBCO) at 37° C. for 10 min. Following incubation, FCS (v/v) was added for 5 min., the cells were removed from the tissue culture flasks, washed in PBS, transferred to new tissue culture flasks at a low density, and incubated with fresh tissue culture media. The cells were expanded and tested until all hematopoietic elements were no more present and all cells were CD45-negative.
For the normal marrow stoma cultures, human bone marrow stroma cells were grown from the bone marrow of healthy individuals as described above. When the cultures had matured and formed homogenous layers of fibroblast-looking cells, the cells were trypsinized and analyzed by fluorescence activated cell scanner/sorter (FACS; above) for the presence of the cell surface marker CD45. When the adherent fibroblast-like cells became CD45-negative, the cells were harvested and transferred to another tissue flask (day 1 of culture).

[6] = system: HS-5 fibroblast cell line; test: FACS analysis of hematopoietic cell surface markers (CD45, CD3, CD14, CD19) in treated HS-5 cells; type: cell-based, human; conditions: 5-azacytidine days 1 and 4, GM-CSF 50 ng/mL and SCF 50 ng/mL days 7 and 10 (FIG. 1 schedule), FACS day 13
Protocol: In these studies, HS-5 fibroblast cells were transferred to tissue culture flasks as described herein. 2.5 μg 5-azacytidine were added to the culture at days 1 and 4. Granulocyte macrophage colony-stimulating factor (GM-CSF; 50 ng/mL) and stem cell factor (SCF; 50 ng/mL) were added to the culture on days 7 and 10. The cells were harvested and analyzed for the presence of hematopoietic cell surface markets such as CD45 on day 13.
The human bone marrow stroma/MSC cell line HS-5 was obtained from ATCC. These fibroblast-like cells are plastic adherent and grow as a single layer in α-medium (GIBCO, Grand Island, N.Y.) supplemented with 10% fetal calf serum (FCS; Hyclone, Logan, Utah). […] When growth factors were added, α-medium was replaced with Iscove's modified Dulbecco's medium (IMDM; GIBCO).
For the HS-5 cultures, HS-5 fibroblast cells were transferred to tissue culture flasks as described. […] The cells were harvested and analyzed for the presence of hematopoietic cell surface markets such as CD45 on day 13.
In these studies, HS-5 cells were incubated with or without 5-azacytidine and/or growth factors according to the schedule described in FIG. 1. On day 13 the cells were harvested and analyzed for the presence of cell surface CD45 by FACS. All viable cells were analyzed and the CD45-corresponding isotypic control was used.

Compound | microscopic evaluation of the colonies (HS-5 cells [1]) | conversion into CD45-positive cells (in words) [2] | lateral/forward scatter analysis of the cell population [2] | CD133+VEGFR-2+ cells [3] [%] | effect on 5-methylcytidine (DNA methylation) (HS-5 cells [4]) | CD45 expression (in words) ([5]; FACS day 13) | CD45 expression (in words) ([5]; FACS day 13, listed as 5-Azacytidine) | CD45 expression (in words) ([5]; FACS day 13, listed as 5-azcytidine) | cells expressing CD45 [6]
Nc1ncn([C@@H]2O[C@H](CO)[C@@H](O)[C@H]2O)c(=O)n1 [5-azacytidine] | characteristics of mixed granulocyte macrophage lineage | converted them into CD45-positive cells | generates a new transdifferentiated (“differentiated”) population of cells | 4.14 | hypomethylates | slightly increased | unable to give rise to a significant number of blood cells | remained CD45-negative | 3.5% and 11%
EGF: epidermal growth factor | – | – | – | < 1.5 | – | – | – | – | –
